Assay results reported in patent US11180494B2, “Substituted amino acids as integrin inhibitors” (Pliant Therapeutics, Inc., priority 2018, dated 2021).

Biological target: human integrin αvβ6 (Homo sapiens (Human), UniProt P06756+P18564)
Assay: Proximity-based integrin receptor binding assay (ALPHASCREEN) for inhibitor potency
Conditions: inhibition of binding of TGF-b1 LAP to human integrin αvβ6; values given in ranges
Protocol: To gauge the potency of inhibitors of binding to human integrin αvβ6, inhibitor compounds and integrin were incubated together with TGF-b1 LAP and biotinylated anti-LAP antibody plus acceptor and donor beads, following the manufacture's recommendations. The donor beads were coated with streptavidin. […] All incubations occurred at room temperatures in 50 mM Tris-HCl, pH 7.5, 0.1% BSA supplemented with 1 mM each CaCl2 and MgCl2.
The order of reagent addition was as follows:
1. Alpha-v-beta-6 integrin, test inhibitor compound, LAP, biotinylated anti-LAP antibody and acceptor beads were all added together.
2. After 2 hours, donor beads were added. After another 30 minute incubation, samples were then read.
Integrin binding was evaluated by exciting donor beads at 680 nm, and measuring the fluorescent signal produced, between 520-620 nm, using a Biotek Instruments (Winooski, Vt., USA) SynergyNeo2 multimode plate reader. […] Data analysis for IC50 determinations was carried out by nonlinear four parameter logistic regression analysis using Dotmatics ELN Software (Core Informatics Inc., Branford, Conn.).

human integrin αvβ6, sequence (P06756 31-992): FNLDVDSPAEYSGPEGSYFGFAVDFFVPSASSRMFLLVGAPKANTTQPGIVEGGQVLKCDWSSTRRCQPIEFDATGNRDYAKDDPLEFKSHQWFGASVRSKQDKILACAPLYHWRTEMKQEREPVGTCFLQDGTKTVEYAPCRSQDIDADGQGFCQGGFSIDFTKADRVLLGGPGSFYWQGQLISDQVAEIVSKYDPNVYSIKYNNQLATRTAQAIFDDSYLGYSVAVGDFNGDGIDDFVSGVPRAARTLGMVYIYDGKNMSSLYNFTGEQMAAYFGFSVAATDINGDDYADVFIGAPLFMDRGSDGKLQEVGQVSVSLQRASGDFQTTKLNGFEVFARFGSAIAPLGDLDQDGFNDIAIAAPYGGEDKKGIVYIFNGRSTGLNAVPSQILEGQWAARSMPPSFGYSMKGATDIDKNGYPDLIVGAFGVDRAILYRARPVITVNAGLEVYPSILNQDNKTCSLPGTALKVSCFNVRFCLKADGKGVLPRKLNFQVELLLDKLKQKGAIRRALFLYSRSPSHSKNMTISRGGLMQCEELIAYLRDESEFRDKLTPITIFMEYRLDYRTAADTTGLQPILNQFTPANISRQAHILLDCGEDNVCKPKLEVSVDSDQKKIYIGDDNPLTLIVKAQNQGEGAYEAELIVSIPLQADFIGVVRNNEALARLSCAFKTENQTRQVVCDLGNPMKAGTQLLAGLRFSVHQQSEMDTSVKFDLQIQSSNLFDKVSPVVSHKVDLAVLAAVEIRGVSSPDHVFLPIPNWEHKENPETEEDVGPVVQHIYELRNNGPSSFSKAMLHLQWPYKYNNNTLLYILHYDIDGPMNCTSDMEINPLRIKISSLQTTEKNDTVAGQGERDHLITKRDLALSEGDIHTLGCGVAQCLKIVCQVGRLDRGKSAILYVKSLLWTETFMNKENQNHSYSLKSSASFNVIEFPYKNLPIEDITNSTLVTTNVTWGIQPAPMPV
human integrin αvβ6, sequence (P18564 22-707): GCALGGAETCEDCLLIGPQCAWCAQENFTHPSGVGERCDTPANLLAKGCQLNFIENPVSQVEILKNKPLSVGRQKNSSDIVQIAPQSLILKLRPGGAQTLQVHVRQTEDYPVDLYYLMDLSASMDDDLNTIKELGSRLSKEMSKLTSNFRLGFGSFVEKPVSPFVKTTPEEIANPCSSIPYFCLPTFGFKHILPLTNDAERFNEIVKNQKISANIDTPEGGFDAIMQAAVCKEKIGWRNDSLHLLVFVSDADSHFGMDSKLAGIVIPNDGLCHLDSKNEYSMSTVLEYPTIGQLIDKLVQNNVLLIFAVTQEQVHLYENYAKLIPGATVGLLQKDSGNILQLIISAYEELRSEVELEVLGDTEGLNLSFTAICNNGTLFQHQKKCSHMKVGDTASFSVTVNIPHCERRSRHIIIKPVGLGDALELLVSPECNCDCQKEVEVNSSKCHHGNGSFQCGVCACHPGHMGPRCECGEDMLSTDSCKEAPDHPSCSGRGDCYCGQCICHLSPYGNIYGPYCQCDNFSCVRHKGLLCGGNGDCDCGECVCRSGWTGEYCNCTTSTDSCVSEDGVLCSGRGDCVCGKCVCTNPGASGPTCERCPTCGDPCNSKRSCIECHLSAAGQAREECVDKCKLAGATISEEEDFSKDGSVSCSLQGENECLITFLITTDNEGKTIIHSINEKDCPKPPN

Compound	IC50 [nM]
O=C(N[C@@H](CCO[C@H]1C[C@H](CCc2ccc3c(n2)NCCC3)C1)C(=O)O)c1ccnc2cc[nH]c12 (relative stereo) [Compound 170, N-(1H-pyrrolo[3,2-b]pyridine-7-carbonyl)-O-(trans-3-(2-(5,6,7,8-tetrahydro-1,8-naphthyridin-2-yl)ethyl)cyclobutyl)homoserine]	< 50
O=C(N[C@@H](CCO[C@H]1C[C@H](CCc2ccc3c(n2)NCCC3)C1)C(=O)O)C1CCCc2cn[nH]c21 (relative stereo) [Compound 177, O-(trans-3-(2-(5,6,7,8-tetrahydro-1,8-naphthyridin-2-yl)ethyl)cyclobutyl)-N-(4,5,6,7-tetrahydro-1H-indazole-7-carbonyl)homoserine]	50 to 250
O=C(N[C@@H](CCO[C@H]1C[C@H](CCc2ccc3c(n2)NCCC3)C1)C(=O)O)C1CCc2ccccc21 (single isomer, unassigned) [96*,††]	250 to 1000
O=C(N[C@@H](CCO[C@H]1C[C@H](CCc2ccc3c(n2)NCCC3)C1)C(=O)O)C1CCc2ccccc21 (single isomer, unassigned) [111**,††]	< 50
CC(CO[C@H]1C[C@H](CCc2ccc3c(n2)NCCC3)C1)C(NC(=O)OC(C)(C)C)C(=O)O (single isomer, unassigned) [Example 145A, 2-((tert-butoxycarbonyl)amino)-3-methyl-4-(trans-3-(2-(5,6,7,8-tetrahydro-1,8-naphthyridin-2-yl)ethyl)cyclobutoxy)butanoic Acid]	250 to 1000
CC(CO[C@H]1C[C@H](CCc2ccc3c(n2)NCCC3)C1)C(NC(=O)OC(C)(C)C)C(=O)O (single isomer, unassigned) [Example 145B, 2-((tert-butoxycarbonyl)amino)-3-methyl-4-(trans-3-(2-(5,6,7,8-tetrahydro-1,8-naphthyridin-2-yl)ethyl)cyclobutoxy)butanoic Acid]	50 to 250
CCC(CC(F)F)C(=O)NC(CCO[C@H]1C[C@H](CCc2ccc3c(n2)NCCC3)C1)C(=O)O (single isomer, unassigned) [Example 162b, N-(-2-ethyl-4,4-difluorobutanoyl)-O-(trans-3-(2-(5,6,7,8-tetrahydro-1,8-naphthyridin-2-yl)ethyl)cyclobutyl)homoserine]	< 50
Cn1ncc2c(C(=O)NC(CCOCCCCc3ccc4c(n3)NCCC4)C(=O)O)cccc21 (centres unmarked) [Compound 4, N-(1-methyl-1H-indazole-4-carbonyl)-O-(4-(5,6,7,8-tetrahydro-1,8-naphthyridin-2-yl)butyl)homoserine]	> 1000
CCC(CC)C(=O)NC(CCOCCCCc1ccc2c(n1)NCCC2)C(=O)O (centres unmarked) [Compound 5, N-(2-ethylbutanoyl)-O-(4-(5,6,7,8-tetrahydro-1,8-naphthyridin-2-yl)butyl)homoserine]	50 to 250
O=C(NC(CCOCCCCc1ccc2c(n1)NCCC2)C(=O)O)c1ccccc1 (centres unmarked) [Compound 6, N-benzoyl-O-(4-(5,6,7,8-tetrahydro-1,8-naphthyridin-2-yl)butyl)homoserine]	250 to 1000
CCCCC(=O)NC(CCOC1CC(CCc2ccc3c(n2)NCCC3)C1)C(=O)O (centres unmarked) [Compound 11, N-pentanoyl-O-(3-(2-(5,6,7,8-tetrahydro-1,8-naphthyridin-2-yl)ethyl)cyclobutyl)homoserine]	50 to 250
CC(C)(C)OC(=O)NC(CCOCCCCc1ccc2c(n1)NCCC2)C(=O)O (centres unmarked) [Compound 13, N-(tert-butoxycarbonyl)-O-(4-(5,6,7,8-tetrahydro-1,8-naphthyridin-2-yl)butyl)homoserine]	250 to 1000
O=C(N[C@@H](CCO[C@H]1C[C@@H](CCc2ccc3c(n2)NCCC3)C1)C(=O)O)c1cccc(F)c1Cl [Compound 14, N-(2-chloro-3-fluorobenzoyl)-O-(cis-3-(2-(5,6,7,8-tetrahydro-1,8-naphthyridin-2-yl)ethyl)cyclobutyl)homoserine]	< 50
O=C(N[C@@H](CCO[C@H]1C[C@@H](CCc2ccc3c(n2)NCCC3)C1)C(=O)O)c1ccc(F)cc1 [Compound 15, N-(4-fluorobenzoyl)-O-(cis-3-(2-(5,6,7,8-tetrahydro-1,8-naphthyridin-2-yl)ethyl)cyclobutyl)homoserine]	< 50
O=C(N[C@@H](CCO[C@H]1C[C@H](CCc2ccc3c(n2)NCCC3)C1)C(=O)O)c1ccc(F)cc1 [Compound 16, N-(4-fluorobenzoyl)-O-(trans-3-(2-(5,6,7,8-tetrahydro-1,8-naphthyridin-2-yl)ethyl)cyclobutyl)homoserine]	< 50
O=C(N[C@@H](CCO[C@H]1C[C@H](CCc2ccc3c(n2)NCCC3)C1)C(=O)O)c1ccc(Cl)cc1 [Compound 17, N-(4-chlorobenzoyl)-O-(trans-3-(2-(5,6,7,8-tetrahydro-1,8-naphthyridin-2-yl)ethyl)cyclobutyl)homoserine]	< 50
CC(C)(C)OC(=O)N[C@@H](CCO[C@H]1C[C@@H](CCc2ccc3c(n2)NCCC3)C1)C(=O)O [Compound 18, N-(tert-butoxycarbonyl)-O-(cis-3-(2-(5,6,7,8-tetrahydro-1,8-naphthyridin-2-yl)ethyl)cyclobutyl)homoserine]	50 to 250
O=C(N[C@@H](CCO[C@H]1C[C@H](CCc2ccc3c(n2)NCCC3)C1)C(=O)O)c1ccc(F)cc1Cl [Compound 25, N-(2-chloro-4-fluorobenzoyl)-O-(trans-3-(2-(5,6,7,8-tetrahydro-1,8-naphthyridin-2-yl)ethyl)cyclobutyl)homoserine]	< 50

Further lines, results first:

IC50 [nM]	Compound
< 50	O=C(NC(CCOCCCCc1ccc2c(n1)NCCC2)C(=O)O)c1cccc(F)c1Cl (racemic) [Compound 1, N-(2-chloro-3-fluorobenzoyl)-O-(4-(5,6,7,8-tetrahydro-1,8-naphthyridin-2-yl)butyl)homoserine]
> 1000	O=C(N[C@@H](CCO[C@H]1C[C@H](CCc2ccc3c(n2)NCCC3)C1)C(=O)O)C1CCc2ccccc21 (single isomer, unassigned) [95*,†]
50 to 250	O=C(N[C@@H](CCO[C@H]1C[C@H](CCc2ccc3c(n2)NCCC3)C1)C(=O)O)C1CCc2ccccc21 (single isomer, unassigned) [110**,†]
50 to 250	O=C(NC(CCOCCCCc1ccc2c(n1)NCCC2)C(=O)O)C1CCC(F)(F)CC1 (centres unmarked) [Compound 7, N-(4,4-difluorocyclohexane-1-carbonyl)-O-(4-(5,6,7,8-tetrahydro-1,8-naphthyridin-2-yl)butyl)homoserine]
250 to 1000	CCCCC(=O)NC(CCOCCCCc1ccc2c(n1)NCCC2)C(=O)O (centres unmarked) [Compound 8, N-pentanoyl-O-(4-(5,6,7,8-tetrahydro-1,8-naphthyridin-2-yl)butyl)homoserine]
50 to 250	O=C(NC(CCOCCCCc1ccc2c(n1)NCCC2)C(=O)O)c1cc(F)cc(C(F)(F)F)c1 (centres unmarked) [Compound 9, N-(3-fluoro-5-(trifluoromethyl)benzoyl)-O-(4-(5,6,7,8-tetrahydro-1,8-naphthyridin-2-yl)butyl)homoserine]
50 to 250	O=C(NC(CCOC1CC(CCc2ccc3c(n2)NCCC3)C1)C(=O)O)c1cc(F)cc(C(F)(F)F)c1 (centres unmarked) [Compound 10, N-(3-fluoro-5-(trifluoromethyl)benzoyl)-O-(3-(2-(5,6,7,8-tetrahydro-1,8-naphthyridin-2-yl)ethyl)cyclobutyl)homoserine]
< 50	O=C(N[C@@H](CCO[C@H]1C[C@H](CCc2ccc3c(n2)NCCC3)C1)C(=O)O)c1cccc(F)c1 [Compound 19, N-(3-fluorobenzoyl)-O-(trans-3-(2-(5,6,7,8-tetrahydro-1,8-naphthyridin-2-yl)ethyl)cyclobutyl)homoserine]
< 50	O=C(N[C@@H](CCO[C@H]1C[C@H](CCc2ccc3c(n2)NCCC3)C1)C(=O)O)c1cccc(Cl)c1 [Compound 20, N-(3-chlorobenzoyl)-O-(trans-3-(2-(5,6,7,8-tetrahydro-1,8-naphthyridin-2-yl)ethyl)cyclobutyl)homoserine]
< 50	O=C(N[C@@H](CCO[C@H]1C[C@H](CCc2ccc3c(n2)NCCC3)C1)C(=O)O)c1ccccc1Cl [Compound 21, N-(2-chlorobenzoyl)-O-(trans-3-(2-(5,6,7,8-tetrahydro-1,8-naphthyridin-2-yl)ethyl)cyclobutyl)homoserine]
< 50	O=C(N[C@@H](CCO[C@H]1C[C@H](CCc2ccc3c(n2)NCCC3)C1)C(=O)O)c1ccccc1F [Compound 22, N-(2-fluorobenzoyl)-O-(trans-3-(2-(5,6,7,8-tetrahydro-1,8-naphthyridin-2-yl)ethyl)cyclobutyl)homoserine]
< 50	O=C(N[C@@H](CCO[C@H]1C[C@H](CCc2ccc3c(n2)NCCC3)C1)C(=O)O)c1cccc(F)c1F [Compound 23, N-(2,3-difluorobenzoyl)-O-(trans-3-(2-(5,6,7,8-tetrahydro-1,8-naphthyridin-2-yl)ethyl)cyclobutyl)homoserine]
< 50	O=C(N[C@@H](CCO[C@H]1C[C@H](CCc2ccc3c(n2)NCCC3)C1)C(=O)O)c1ccc(F)cc1F [Compound 24, N-(2,4-difluorobenzoyl)-O-(trans-3-(2-(5,6,7,8-tetrahydro-1,8-naphthyridin-2-yl)ethyl)cyclobutyl)homoserine]
< 50	O=C(N[C@@H](CCO[C@H]1C[C@H](CCc2ccc3c(n2)NCCC3)C1)C(=O)O)c1cc(F)cc(Cl)c1 [Compound 26, N-(3-chloro-5-fluorobenzoyl)-O-(trans-3-(2-(5,6,7,8-tetrahydro-1,8-naphthyridin-2-yl)ethyl)cyclobutyl)homoserine]
